“Also recorded” adds a separate entry of the source. Read-outs that look alike come from different tables or passages of the source.
Legend:
human NHE3 [1] = target: T1, human NHE3 (Homo sapiens, UniProt P48764); assay: 22Na+ uptake in acid loaded HNHE3/PS120 cells; type: cell-based; conditions: 22Na+ 1 mM
T1 construct: expressed in transfected cells; host or cells: PS120 (Na+/H+ exchanger deficient derivative of Chinese hamster lung fibroblast line CCL39), plasmid pEH3 (pECE vector)
T1 sequence (P48764 26-834): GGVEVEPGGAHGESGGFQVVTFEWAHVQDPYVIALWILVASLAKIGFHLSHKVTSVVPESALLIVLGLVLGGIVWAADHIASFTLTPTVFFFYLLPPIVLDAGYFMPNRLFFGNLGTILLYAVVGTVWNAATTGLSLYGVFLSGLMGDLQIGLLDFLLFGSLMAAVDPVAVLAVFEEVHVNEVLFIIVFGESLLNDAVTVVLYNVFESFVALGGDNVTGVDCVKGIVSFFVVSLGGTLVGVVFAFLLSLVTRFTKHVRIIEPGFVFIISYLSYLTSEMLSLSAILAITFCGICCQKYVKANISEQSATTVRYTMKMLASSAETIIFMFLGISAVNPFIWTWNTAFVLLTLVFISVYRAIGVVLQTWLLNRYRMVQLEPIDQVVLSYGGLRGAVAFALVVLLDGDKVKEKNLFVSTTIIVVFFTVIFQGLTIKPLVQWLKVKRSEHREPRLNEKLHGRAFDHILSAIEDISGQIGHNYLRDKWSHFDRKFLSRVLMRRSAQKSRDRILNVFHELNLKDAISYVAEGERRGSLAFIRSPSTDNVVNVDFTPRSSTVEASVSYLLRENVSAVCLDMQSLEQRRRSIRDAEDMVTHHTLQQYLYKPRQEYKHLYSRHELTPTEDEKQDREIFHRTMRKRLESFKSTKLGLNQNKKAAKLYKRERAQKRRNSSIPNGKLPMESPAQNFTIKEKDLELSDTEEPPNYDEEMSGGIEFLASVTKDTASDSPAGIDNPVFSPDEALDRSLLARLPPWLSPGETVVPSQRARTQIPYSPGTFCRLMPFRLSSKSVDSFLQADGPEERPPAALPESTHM
Procedure: Stably transfected HNHE3/PS 120 cells were grown to near confluency in 24-well plates. The cells were serum-starved for 24 hours to arrest growth. ^22Na^+ uptake (1 mM) was measured during the linear phase of uptake in the presence of 1 mM ouabain and various concentrations of potential inhibitors amiloride or ethylisopropylamiloride (EIPA) following acidification with NH4Cl prepulse, as detailed previously (30).
Human brush border epithelial Na^+/H^+ exchange has been characterized as being much less sensitive to inhibition by amiloride and its 5-amino-substituted analogues than basolateral and nonepithelial membrane Na^+/H^+ exchangers (10,24,36). Therefore we determined the quantitative sensitivity of HNHE3/PS120 cells to inhibition by amiloride and EIPA by ^22Na^+ uptake studies. The concentration dependence for amiloride and EIPA inhibition of the initial rate of ^22Na^+ uptake (1 mM) into acid loaded HNHE3/PS120 cells was determined.
Three independent experiments were performed. […] FIG. 6 provides curves are from a representative experiment. Each point represents the mean percent of control ^22Na^+ uptake of duplicate experiments for each concentration of inhibitor. The curves are nonlinear least squares fits of the data assuming a single binding site for the inhibition (GraphPAD Software, Inc., San Diego, Calif.).

Rat NHE3 = Rat NHE3 (Rattus norvegicus, UniProt P26433); conditions: read-out: Inhibition constants (IC50); cited from earlier work
Sequence of Rat NHE3 (P26433 29-831): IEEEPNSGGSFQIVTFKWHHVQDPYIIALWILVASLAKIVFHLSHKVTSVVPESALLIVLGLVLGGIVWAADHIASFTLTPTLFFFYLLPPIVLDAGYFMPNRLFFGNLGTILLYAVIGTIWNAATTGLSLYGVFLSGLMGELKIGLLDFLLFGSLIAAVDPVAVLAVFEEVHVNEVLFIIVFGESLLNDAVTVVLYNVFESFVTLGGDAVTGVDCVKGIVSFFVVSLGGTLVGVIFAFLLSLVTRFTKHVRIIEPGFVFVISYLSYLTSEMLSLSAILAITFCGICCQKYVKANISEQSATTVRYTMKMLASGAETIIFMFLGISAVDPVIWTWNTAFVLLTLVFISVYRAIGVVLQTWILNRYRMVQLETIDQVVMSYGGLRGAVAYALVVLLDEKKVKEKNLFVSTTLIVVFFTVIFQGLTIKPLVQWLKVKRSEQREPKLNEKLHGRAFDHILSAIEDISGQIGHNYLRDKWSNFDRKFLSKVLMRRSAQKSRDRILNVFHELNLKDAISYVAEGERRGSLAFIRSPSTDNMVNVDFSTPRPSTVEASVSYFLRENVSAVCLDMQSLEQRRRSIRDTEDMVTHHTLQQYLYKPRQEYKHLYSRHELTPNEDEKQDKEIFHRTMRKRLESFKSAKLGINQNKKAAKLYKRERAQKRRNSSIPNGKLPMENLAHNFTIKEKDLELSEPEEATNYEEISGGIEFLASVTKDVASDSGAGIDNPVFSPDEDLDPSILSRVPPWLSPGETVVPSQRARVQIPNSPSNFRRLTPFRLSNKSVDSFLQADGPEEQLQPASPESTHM

Rabbit NHE3 = Rabbit NHE3 (Oryctolagus cuniculus, UniProt P26432); conditions: read-out: Inhibition constants (IC50); cited from earlier work
Sequence of Rabbit NHE3 (P26432 30-832): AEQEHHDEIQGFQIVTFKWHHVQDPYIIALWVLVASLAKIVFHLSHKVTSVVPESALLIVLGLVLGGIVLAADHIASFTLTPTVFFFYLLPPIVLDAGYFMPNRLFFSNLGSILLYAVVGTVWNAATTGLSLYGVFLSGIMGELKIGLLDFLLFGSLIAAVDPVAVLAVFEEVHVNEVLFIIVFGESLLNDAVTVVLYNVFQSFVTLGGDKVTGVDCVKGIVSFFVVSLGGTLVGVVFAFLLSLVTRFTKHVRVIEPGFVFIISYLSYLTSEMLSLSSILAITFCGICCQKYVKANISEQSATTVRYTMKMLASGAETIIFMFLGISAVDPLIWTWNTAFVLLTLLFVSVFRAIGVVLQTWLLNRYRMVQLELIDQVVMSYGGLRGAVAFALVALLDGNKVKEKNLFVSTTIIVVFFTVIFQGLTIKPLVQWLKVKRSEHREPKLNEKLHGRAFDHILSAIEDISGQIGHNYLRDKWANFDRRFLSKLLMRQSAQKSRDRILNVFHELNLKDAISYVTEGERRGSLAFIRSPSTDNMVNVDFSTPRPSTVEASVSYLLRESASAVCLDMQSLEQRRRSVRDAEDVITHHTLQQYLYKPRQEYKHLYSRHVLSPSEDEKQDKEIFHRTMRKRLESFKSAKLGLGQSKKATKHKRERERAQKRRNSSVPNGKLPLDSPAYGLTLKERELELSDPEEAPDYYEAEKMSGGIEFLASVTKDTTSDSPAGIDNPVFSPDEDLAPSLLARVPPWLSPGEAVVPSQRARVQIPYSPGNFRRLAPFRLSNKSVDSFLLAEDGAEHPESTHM

human NHE3 [2] = target: T1, human NHE3; assay: Na+/H+ exchange activity by BCECF fluorescence (pHi) in HNHE3/PS120 cells; type: cell-based
Procedure: HNHE3/PS120 cells were grown to 70-80% confluency on glass coverslips, serum starved overnight to arrest growth, washed with Na^+ medium (containing in mM: 130 NaCl, 5 KCl, 2 CaCl2, 1 MgSO4, 1 NaPO4, 25 glucose, 20 HEPES, pH 7.4) and loaded with the acetoxymethyl ester of 2′,7′-bis(2-carboxyethyl)-5-(and-6)carboxyfluorescein (BCECF) as previously discussed (31). Cells were washed with TMA medium (containing in mM: 130 tetramethylammonium-C1, 5 KCl, 2 CaCl2 1 MgSO4, 1 TMA-P04, 25 glucose, 20 HEPES, pH 7.4), mounted in a cuvette, and perfused at 37° C. Cells were acidified by perfusing with 30 mM NH4Cl prepulse followed by removal of NH4Cl with TMA medium. The cuvette was then perfused with Na^+ medium. […] Na^+/H^+ exchange was determined by multiplying the initial rate of Na^+ dependent alkalinization by intracellular buffering capacity, as described.
HNHE3/PS120 cells loaded with BCECF were acidified by NH4Cl prepulse.
Serum starved HNHE3/PS120 cells were acidified by a NH4Cl prepulse and allowed to recover in 130 mM Na^+ medium until steady-state pHi was obtained.

[3] = mean of three independent experiments, read-out: Inhibition constants (IC50) of 22Na+ uptake, mean
[4] = single representative experiment, nonlinear least squares fit, read-out: IC50 of the representative curves (FIG. 6)

Row | SMILES | IC50 (human NHE3 [1]; [3]) | IC50 (human NHE3 [1]; [4]) | IC50 (Rat NHE3) | IC50 (Rabbit NHE3) | ΔpHi at steady state after addition (human NHE3 [2]; FGF 10 ng/ml (n=4) or PMA 1.0 μM (n=5), 130 mM Na+ medium, controls −0.006±0.012) | time to reach new steady state pHi (average) (human NHE3 [2]; FGF 10 ng/ml or PMA 1.0 μM added at steady-state pHi) | effect on human NHE3 Na+/H+ exchange activity (in words) (human NHE3 [2]; FGF 10 ng/ml, 8-bromo-cAMP 0.5 mM, PMA 1.0 μM, at steady-state pHi)
1 | N=C(N)NC(=O)c1nc(Cl)c(N)nc1N [Amiloride, amiloride] | 49 µM | 59 µM | 100 µM | 39 µM | – | – | –
2 | CCN(c1nc(N)c(C(=O)NC(=N)N)nc1Cl)C(C)C [Ethylisopropylamiloride, ethylisopropylamiloride] | 6.6 µM | 8.8 µM | 2.4 µM | 8 µM | – | – | –
3 | CCCCCCCCCCCCCC(=O)O[C@@H]1[C@@H](C)[C@@]2(O)[C@@H](C=C(CO)C[C@]3(O)C(=O)C(C)=C[C@@H]23)[C@@H]2C(C)(C)[C@]12OC(C)=O [PMA, phorbol 12-myristate 13-acetate] | – | – | – | – | −0.052±0.006 | less than 2 min | inhibition of the transfected Na^+/H^+ exchanger; also recorded: inhibited

Reference: US6392025B1, “Human NHE3 protein and non-human cells expressing same” (Tranzmembrane, LLC, priority 1995, dated 2002)
